Measured values as given in patent publication US20230149409A1, “TREATMENT OF HUMAN PAPILLOMAVIRUS-ASSOCIATED CANCERS BY PD-L1 INHIBITORS” (priority 2021, published 2023).

Assays:
[1] = tested on: PD-L1 (PD-L1 aAPC/CHO-K1 cells, Jurkat-PD-1-NFAT effector cells); experiment: Nuclear Factor of Activated T-cells (NFAT) assay; format: cell-based; conditions: Cricetulus griseus; PD-L1 aAPC/CHO-K1 + Jurkat-PD-1-NFAT cells, 24 hours
Method: Nuclear Factor of Activated T-cells (NFAT) Assay
PD-L1 aAPC/CHO-K1cells (Promega) were maintained in F-12 medium with addition of 10% FBS, 200 µg/mL Hygromycin B, 250 µg/mL Geneticin (G418). […] The culture media of PD-L1 aAPC/CHO-K1 cells were first replaced with assay medium (RPMI1640 medium with 1% FBS). The PD-L1 aAPC/CHO-K1cells were then added in a white 384-well white clear bottom assay plate (CELLCOAT® Tissue Culture Plates, Greiner Bio-One) at 8000 per well in 10 uL assay medium. […] 5 uL compounds in the assay medium were transferred to the cells with 0.4% DMSO in the final assay at 2 µM. After removing the culture media, 10,000 Jurkat-PD-1-NFAT effector cells in 5 µL assay medium was dispensed into each well. The assay plate was incubated at 37° C., 5% CO2 for 24 hours. […] After 8 minutes incubation at room temperature, luminescence was read at with Pherastar microplate reader (BMG Labtech). The fold of induction (FOI) was calculated based on the ratio of luminescence normalized to the DMSO wells within each assay plate. The maximum percentage of induction was reported based on the ratio between the highest FOI of each compound and the maximum FOI of control compound within each assay plate. Wells with DMSO were served as the negative controls and wells containing control compound with the highest FOI were used as positive controls. EC50 determination was performed by fitting the curve of percent control activity versus the log of the compound concentration using the GraphPad Prism 6.0 software.

[2] = target: T1, PD-L1 on CD14+ cells in human whole blood (Homo sapiens, UniProt Q9NZQ7); experiment: PD-L1 whole blood internalization assay; format: cell-based; conditions: 1 ng/mL interferon γ, CD14+ gated, 24 hour
T1 construct: Cells were gated on CD14+ (BD Biosciences) and PD-L1 expression determined by mean fluorescence intensity; host or cells: CD14+ cells in normal human whole blood, stimulated with human interferon gamma
T1 sequence (Q9NZQ7 19-290): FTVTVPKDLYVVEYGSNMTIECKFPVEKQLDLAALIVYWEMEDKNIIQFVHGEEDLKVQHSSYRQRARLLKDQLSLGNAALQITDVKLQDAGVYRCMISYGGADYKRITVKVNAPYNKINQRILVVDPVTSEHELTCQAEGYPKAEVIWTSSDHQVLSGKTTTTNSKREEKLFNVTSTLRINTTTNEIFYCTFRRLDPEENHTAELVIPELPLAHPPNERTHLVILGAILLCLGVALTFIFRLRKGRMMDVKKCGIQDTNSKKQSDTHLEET
Method: PD-L1 Whole Blood Internalization Assay
To determine PD-L1 internalization in human whole blood, normal human blood (Biological Specialty Corp, Colmar. PA) was incubated in the presence or absence of a concentration range of test compounds and 1 ng/mL human interferon γ (R&D Systems Inc. Minn. MN) in a 96 well “2 mL Assay Block” (Corning, Corning NY) for 18-20 hours at 37 °C. Blood was then stained with PD-L1 (MIH1, eBioscience; or BD Biosciences San Jose, CA), CD14 (Life Technologies, Carlsbad, CA) for 30 minutes in the dark at room temperature. Whole Blood/red cells were lysed/fixed (lysis buffer BD Biosciences) for 5 minutes at 37 °C in the dark and then centrifuged at 1600 RPM for 5 minutes. Cells were resuspended in Stain Buffer (BD Bioscience, San Jose, CA) and transferred into 96 well round bottom plates (Coming). Cells were gated on CD14+ (BD Biosciences) and PD-L1 expression determined by mean fluorescence intensity (MFI) (BD LSRFortessa® X-20). IC50 determination was performed by fitting the curve of compound percent inhibition versus the log of the compound concentration using the GraphPad Prism 7.0 software.

[3] = tested on: PD-L1 (U2OS/PD-L1 cells, Jurkat-PD-1-SHP cells); experiment: Src Homology Region 2 Domain-containing Phosphatase (SHP) assay; format: cell-based; conditions: Homo sapiens; U2OS/PD-L1 + Jurkat-PD-1-SHP cells, 2 hours
Method: Example 1B. Src Homology Region 2 Domain-containing Phosphatase (SHP) Assay
U2OS/PD-L1 cells (DiscoveRx Corporation) were maintained in McCoy’s 5A medium with addition of 10% FBS, 0.25 µg/mL Puromycin. After removing the culture media, the cell medium was replaced with assay medium (RPMI1640 medium with 1% FBS). The U2OS/PD-L1 cells were then added in 384-well black clear bottom assay plate (CELLCOAT® Tissue Culture Plates, Greiner Bio-One) at 5000 cells per well in 20 uL assay medium. Test compounds were prepared by serial dilution in DMSO and 125 nL compound were first transferred to the 384 REMP plate well (Thermofisher) by ECHO liquid handler (Labcyte) followed with addition of 27.5 uL assay medium. 5 µL/well compounds in the assay medium were transferred to the cell plate with 0.05% DMSO in the final assay at 0.25 µM. Jurkat-PD-1-SHP cells (DiscoveRx Corporation) were cultured in RPMI1640 medium supplemented with 10% FBS, 250 µg/mL Hygromycin B, 500 µg/mL G418. After the replacement of culture media with assay medium, 5,000 Jurkat-PD-1-SHP cells in 20 µL were dispensed into each well. The assay plate was incubated at 37° C., 5% CO2 for 2 hours before 2.5 uL PathHunter reagent 1 (DiscoveRx Corporation) were added to each well. The assay plate was shaken for 1 min at 350 rpm in the dark followed with addition of 10 uL PathHunter reagent 2 (DiscoveRx Corporation). Chemiluminescent signal was recorded with TopCount reader (Perkin Elmer) after incubation at room temperature for 1 hour. Wells with DMSO were served as the positive controls and wells containing no cells were used as negative controls. IC50 determination was performed by fitting the curve of percentage of control activity versus the log of the compound concentration using the GraphPad Prism 6.0 software.

[4] = target: T2, PD-⅟PD-L1 (recombinant human PD-L1 protein and human PD-1 protein) (Homo sapiens, UniProt Q9NZQ7); experiment: Homogeneous Time-Resolved Fluorescence (HTRF) PD-1/PD-L1 binding assay; conditions: 3 nM PD1, 10 nM PD-L1, 25° C., PBS pH 7.4
T2 construct: Recombinant human PD-L1 protein (19-238) with a His-tag at the C-terminus; purchased AcroBiosystems PD1-H5229 (PD-L1); PD1-H5257 (PD-1)
T2 sequence (Q9NZQ7 19-238): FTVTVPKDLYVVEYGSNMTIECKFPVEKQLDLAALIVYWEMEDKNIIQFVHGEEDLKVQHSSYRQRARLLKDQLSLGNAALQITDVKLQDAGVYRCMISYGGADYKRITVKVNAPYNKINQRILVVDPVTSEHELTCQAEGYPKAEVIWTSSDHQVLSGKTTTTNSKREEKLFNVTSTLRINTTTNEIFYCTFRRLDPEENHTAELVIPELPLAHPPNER
Method: Homogeneous Time-Resolved Fluorescence (HTRF) PD-⅟PD-L1 Binding Assay
The assays were conducted in a standard black 384-well polystyrene plate with a final volume of 20 uL. Inhibitors were first serially diluted in DMSO and then added to the plate wells before the addition of other reaction components. The final concentration of DMSO in the assay was 1%. The assays were carried out at 25° C. in the PBS buffer (pH 7.4) with 0.05% Tween-20 and 0.1% BSA. […] PD-L1 and PD-1 proteins were diluted in the assay buffer and 10 uL was added to the plate well. Plates were centrifuged and proteins were preincubated with inhibitors for 40 minutes. The incubation was followed by the addition of 10 uL of HTRF detection buffer supplemented with Europium cryptate-labeled anti-human IgG (PerkinElmer-AD0212) specific for Fc and anti-His antibody conjugated to SureLight®-Allophycocyanin (APC, PerkinElmer-AD0059H). […] Final concentrations in the assay were - 3 nM PD1, 10 nM PD-L1, 1 nM europium anti-human IgG and 20 nM anti-His-Allophycocyanin. IC50 determination was performed by fitting the curve of percent control activity versus the log of the inhibitor concentration using the GraphPad Prism 5.0 software.

SMILES	IC50 [2]	IC50 [3]	IC50 [4]	EC50 [1]
Cc1c(Nc2nccc3cc(CN4CC[C@H](O)C4)cnc23)cccc1-c1cccc(-c2nc3cc(CN4CC[C@H](C(=O)O)C4)cc(C#N)c3o2)c1C [Compound 3]	< 500 nM	< 10 nM	–	< 100 nM
Cc1c(Nc2nc(C(F)F)nc3cc(CN4CC[C@](C)(O)C4)cnc23)cccc1-c1cccc(-c2nc3cc(CN4CCC(C(=O)O)CC4)cc(C#N)c3o2)c1C [Compound 28, (S)-1-((7-cyano-2-(3′-(2-(difluoromethyl)-7-((3-hydroxy-3-methylpyrrolidin-1-yl)methyl)pyrido[3,2-d]pyrimidin-4-ylamino)-2,2′-dimethylbipheiryl-3-yl)benzo[d]oxazol-5-yl)methyl)pipendine-4-carboxylic acid]	< 100 nM	–	< 10 nM	–
Cc1c(Nc2nccc3cc(CN4CC[C@H](O)C4)cnc23)cccc1-c1cccc(-c2nc3cc(CN4CC[C@@H](C(=O)O)C4)cc(C#N)c3o2)c1C [Compound 4, (R)-1-((7-cyano-2-(3′-(3-(((S)-3-hydroxypyrrolidin-1-yl)methyl)-1,7-naphthyridin-8-ylamino)-2,2′-dimethylbiphenyl-3-yl)benzo[d]oxazol-5-yl)methyl)pyrrolidine-3-carboxylic acid]	< 500 nM	< 100 nM	–	< 100 nM
Cc1c(Nc2nccc3cc(CN4CC[C@@H](O)C4)cnc23)cccc1-c1cccc(-c2nc3cc(CN4CC[C@H](C(=O)O)C4)cc(C#N)c3o2)c1C [Compound 5]	< 500 nM	< 10 nM	–	< 100 nM

More lines, main results first:

IC50 [2]	IC50 [3]	IC50 [4]	SMILES	EC50 [1]
< 100 nM	< 10 nM	–	CCN(C)CC(=O)N1Cc2nc(-c3cccc(-c4cccc(Nc5nccc6cc(CN7CC[C@@H](C(=O)O)C7)cnc56)c4Cl)c3C)sc2C1 [Compound 13, (R)-1-((8-((2-chloro-3′-(5-(N-ethyl-N-methylglycyl)-5,6-dihydro-4H-pyrrolo[3,4-d]thiazol-2-yl)-2′-methyl-[1,1′-biphenyl]-3-yl)amino)-1,7-naphthyridin-3-yl)methyl)pyrrolidine-3-carboxylic acid]	< 100 nM
< 100 nM	–	< 10 nM	Cc1c(Nc2nc(C(F)F)nc3cc(CN4CC[C@@H](O)C4)cnc23)cccc1-c1cccc(-c2nc3cc(CN4CC[C@@](C)(C(=O)O)C4)cc(C#N)c3o2)c1C [Compound 26, (R)-1-((7-cyano-2-(3′-(2-(difluoromethyl)-7-(((R)-3-hydroxypyrrolidin-1-yl)methyl)pyrido[3,2-d]pyrimidin-4-ylamino)-2,2′-dimethylbipheiryl-3-yl)benzo[d]oxazol-5-yl)methyl)-3-methylpyrrolidine-3-carboxylic acid]	< 100 nM
< 100 nM	< 10 nM	–	Cc1c(-c2nc3cc(CN4CCC(C(=O)O)CC4)cc(C#N)c3o2)cccc1-c1cccc(-c2nc3c(s2)CN(C(=O)CN(C)C)C3)c1C [Compound 6, 1-((7-cyano-2-(3′-(5-(2-(dimethylamino)acetyl)-5,6-dihydro-4H-pyrrolo [3,4-d]thiazol-2-yl)-2,2′-dimethylbiphenyl-3-yl)benzo[d]oxazol-5-yl)methyl)piperidine-4-carboxylic acid]	< 100 nM
< 100 nM	< 10 nM	–	Cc1c(Nc2nccc3cc(CN4CC[C@@](C)(O)C4)cnc23)cccc1-c1cccc(NC(=O)c2nc3c(n2C)CCN(C[C@H]2CC[C@@H](C(=O)O)CC2)C3)c1Cl [Compound 11, cis-4-((2-(2-chloro-3′-(3-(((R)-3-hydroay-3-methylpyrrolidin-1-yl)methyl)-1,7-naphthyridin-8-ylamino)-2′-methylbiphenyl-3-ylcarbamoyl)-1-methyl-6,7-dihydro-1H-imidazo[4,5-c]pyridin-5(4H)-yl)methyl)cyclohexanecarboxylic acid]	< 100 nM
< 100 nM	–	< 10 nM	Cc1c(Nc2nc(C(F)F)nc3cc(CN4CC[C@@](C)(O)C4)cnc23)cccc1-c1cccc(-c2nc3cc(CN4CCC(C(=O)O)CC4)cc(C#N)c3o2)c1C [Compound 27, (R)-1-((7-cyano-2-(3′-(2-(difluoromethyl)-7-((3-hydroxy-3-methylpyrrolidin-1-yl)methyl)pyrido[3,2-d]pyrimidin-4-ylamino)-2,2′-dimethylbipheiryl-3-yl)benzo[d]oxazol-5-yl)methyl)piperidine-4-caiboxylic acid]	–
–	< 100 nM	–	Cc1c(-c2nc3c(s2)CN(C(=O)CN(C)C)C3)cccc1-c1cccc(-c2nc3c(s2)CN(C(=O)CN2CC[C@@H](O)C2)C3)c1C [Compound 14, (R)-2-(dimethylamino)-1-(2-(3′-(5-(2-(3-hydroaypyrrolidin-1-yl)acetyl)-5,6-dihydro-4H-pyrrolo[3,4-d]thiazol-2-yl)-2,2′-dimethylbipheiryl-3-yl)-4H-pyrrolo [3,4-d]thiazol-5(6H)-yl)ethanone]	< 500 nM
< 100 nM	–	< 10 nM	Cc1c(Nc2nc(C(F)F)nc3cc(CN4CC[C@@H](O)C4)cnc23)cccc1-c1cccc(-c2nc3cc(CN4CC[C@@H](C(=O)O)C4)cc(C#N)c3o2)c1C [Compound 25, (R)-1-((7-cyano-2-(3′-(2-(difluoromethyl)-7-(((R)-3-hydroxypyrrolidin-1-yl)methyl)pyrido[3,2-d]pyrimidin-4-ylamino)-2,2′-dimethylbiphenyl-3-yl)benzo [d]oxazol-5-yl)methyl)pyrrolidine-3-carboxylic acid]	< 100 nM
